Laboratory results published in PubChem BioAssay (NCI).
Several values for one entry are separate records, joined by “and”; a condition that tells them apart may be missing. Equal entries are not always repeated.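 Briefly, cells in 96-well plates were exposed to five compound concentrations for 48 h, and endpoints were estimated by linear interpolation. GI50 = concentration required for 50% inhibition of growth. TGI: concentration producing complete growth inhibition.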

The compounds below were run on HCT-116 colon (assay: NCI-60 cell line screen, 48 h).

| Structure (SMILES) | TGI | GI50 [µM] |
| --- | --- | --- |
| COc1cc2c3c(n(CCCNC(=O)OCC4c5ccccc5-c5ccccc54)c(=O)c2cc1OC)-c1cc2c(cc1/C3=C\CCNC(=O)OCC1c3ccccc3-c3ccccc31)OCO2 | > 12.9 µM | – |
| NC(N)=N/N=C(\c1nc2ccc([N+](=O)[O-])cc2[nH]c1=O)C(O)c1ccc([N+](=O)[O-])cc1 (centres undefined) | > 100 µM | – |
| N#C/C(=C1C=C(Br)/C(=N\O)C=C\1Cl)c1cccc2ccccc12 | 15.6 µM | – |
| COC(=O)[C@@H](C)CNS(=O)(=O)N(c1cc(C(F)(F)F)cc(C(F)(F)F)c1)C1CCN(Cc2ccc(F)cc2)CC1 | 16.4 µM | 4.41 |
| C=C1C(=O)O[C@@H]2/C=C(\C)CC/C=C(/COC(C)=O)C[C@@H](OC(C)=O)[C@@H]12 | 14.6 µM | – |
| COC(=O)[C@H](C)NC(=O)NC(=O)NC(=O)CI | 28.4 µM | 13.9 |
| COc1cc2c(c(OC)c1OC)-c1ccc(OC)c(=O)cc1[C@@H](NC(=O)c1ccccc1)CC2 | – | < 0.003 |
| NCCCCN(CCCN)/[N+]([O-])=N\O | > 100 µM | – |
| CCOc1ccccc1NC(=O)CC(C(=O)OC)C(=O)C(=O)OC (centres undefined) | > 100 µM | – |
| COc1cccc2c1C(=O)c1c(O)c3c(c(O)c1C2=O)C[C@@](O)(C(C)=O)C[C@@H]3OC1OC(C)C(O)C(N)C1Br (some centres undefined) | 0.147 µM and 0.188 µM | – |
| CN1C/C=C\CCOc2cccc(c2)-c2ccnc(n2)Nc2cccc(c2)C1 | 0.677 µM | 0.0298 |
| COC(=O)C1=C(C)N(NC(=O)OC(C)(C)C)C(=O)C1=P(c1ccccc1)(c1ccccc1)c1ccccc1 | > 100 µM | – |
| O=C1OC(c2ccccc2)=N/C1=C\c1cccc2ccccc12 | > 100 µM | – |
| C[C@@H]1CC(=O)C2CCCC1C2=O (some centres undefined) | > 100 µM | – |
| COC1=C(C)C(=O)c2c(c(COC(N)=O)c3n2CC2C3N2C)C1=O (centres undefined) | 0.0641 µM | – |
| COc1ccc(Cn2cc3c(c2-c2ccccc2)CC(C)(C)c2cnoc2-3)cc1 | > 100 µM | 1.47 |
| CN1c2ccc(Cl)cc2C(=O)NC1c1ccc([N+](=O)[O-])s1 (centres undefined) | 29 µM | – |
| c1cc(CNC23CC4CC(CC(C4)C2)C3)cc(C[N+](Cc2cccc(CNC34CC5CC(CC(C5)C3)C4)c2)(Cc2cccc(CNC34CC5CC(CC(C5)C3)C4)c2)Cc2cccc(CNC34CC5CC(CC(C5)C3)C4)c2)c1 (centres undefined) | 8.42 µM | 3.04 |
| Oc1cccnc1CN1CCCCC1 | > 100 µM | – |
| CN(C)C(=O)c1cc2cnc(Nc3ccc(-c4csc5c(=S)cc(N6CCOCC6)oc45)cc3)nc2n1C1CCCC1 | > 50 µM | 0.242 |
| COC1=CC(=O)c2nc(-c3cccc(C)n3)[nH]c2C1=O | 35.7 µM | 18 |

These compounds were tested on CAKI-1 renal (assay: NCI-60 cell line screen, 48 h).

| Structure (SMILES) | GI50 [µM] | TGI |
| --- | --- | --- |
| COc1cc2c3c(n(CCCNC(=O)OCC4c5ccccc5-c5ccccc54)c(=O)c2cc1OC)-c1cc2c(cc1/C3=C\CCNC(=O)OCC1c3ccccc3-c3ccccc31)OCO2 | > 13.8 | > 46.1 µM |
| NC(N)=N/N=C(\c1nc2ccc([N+](=O)[O-])cc2[nH]c1=O)C(O)c1ccc([N+](=O)[O-])cc1 (centres undefined) | – | > 100 µM |
| N#C/C(=C1C=C(Br)/C(=N\O)C=C\1Cl)c1cccc2ccccc12 | – | 23.4 µM |
| COC(=O)[C@@H](C)CNS(=O)(=O)N(c1cc(C(F)(F)F)cc(C(F)(F)F)c1)C1CCN(Cc2ccc(F)cc2)CC1 | 7.23 | 22.3 µM |
| C=C1C(=O)O[C@@H]2/C=C(\C)CC/C=C(/COC(C)=O)C[C@@H](OC(C)=O)[C@@H]12 | – | 20.2 µM |
| COC(=O)[C@H](C)NC(=O)NC(=O)NC(=O)CI | 2.53 | 6.73 µM |
| COc1cc2c(c(OC)c1OC)-c1ccc(OC)c(=O)cc1[C@@H](NC(=O)c1ccccc1)CC2 | 0.029 | 30 µM and 61.2 µM |
| NCCCCN(CCCN)/[N+]([O-])=N\O | – | > 100 µM |
| CCOc1ccccc1NC(=O)CC(C(=O)OC)C(=O)C(=O)OC (centres undefined) | – | > 100 µM |
| COc1cccc2c1C(=O)c1c(O)c3c(c(O)c1C2=O)C[C@@](O)(C(C)=O)C[C@@H]3OC1OC(C)C(O)C(N)C1Br (some centres undefined) | – | 0.257 µM |
| CN1C/C=C\CCOc2cccc(c2)-c2ccnc(n2)Nc2cccc(c2)C1 | 0.0373 | 1.52 µM |
| COC(=O)C1=C(C)N(NC(=O)OC(C)(C)C)C(=O)C1=P(c1ccccc1)(c1ccccc1)c1ccccc1 | – | > 100 µM |
| O=C1OC(c2ccccc2)=N/C1=C\c1cccc2ccccc12 | – | > 100 µM |
| C[C@@H]1CC(=O)C2CCCC1C2=O (some centres undefined) | – | > 100 µM |
| COC1=C(C)C(=O)c2c(c(COC(N)=O)c3n2CC2C3N2C)C1=O (centres undefined) | – | 0.059 µM |
| COc1ccc(Cn2cc3c(c2-c2ccccc2)CC(C)(C)c2cnoc2-3)cc1 | 1.22 | > 100 µM |
| CN1c2ccc(Cl)cc2C(=O)NC1c1ccc([N+](=O)[O-])s1 (centres undefined) | – | 40.7 µM |
| c1cc(CNC23CC4CC(CC(C4)C2)C3)cc(C[N+](Cc2cccc(CNC34CC5CC(CC(C5)C3)C4)c2)(Cc2cccc(CNC34CC5CC(CC(C5)C3)C4)c2)Cc2cccc(CNC34CC5CC(CC(C5)C3)C4)c2)c1 (centres undefined) | 5.36 | 19.6 µM |
| Oc1cccnc1CN1CCCCC1 | – | > 100 µM |
| CN(C)C(=O)c1cc2cnc(Nc3ccc(-c4csc5c(=S)cc(N6CCOCC6)oc45)cc3)nc2n1C1CCCC1 | 0.368 | > 13.3 µM |
| COC1=CC(=O)c2nc(-c3cccc(C)n3)[nH]c2C1=O | 22 | 54.9 µM |

What follows are compounds tested on OVCAR-5 ovarian (assay: NCI-60 cell line screen, 48 h).

| Structure (SMILES) | GI50 [µM] | TGI |
| --- | --- | --- |
| COc1cc2c3c(n(CCCNC(=O)OCC4c5ccccc5-c5ccccc54)c(=O)c2cc1OC)-c1cc2c(cc1/C3=C\CCNC(=O)OCC1c3ccccc3-c3ccccc31)OCO2 | > 19.6 | > 45 µM |
| NC(N)=N/N=C(\c1nc2ccc([N+](=O)[O-])cc2[nH]c1=O)C(O)c1ccc([N+](=O)[O-])cc1 (centres undefined) | – | > 100 µM |
| N#C/C(=C1C=C(Br)/C(=N\O)C=C\1Cl)c1cccc2ccccc12 | – | 18 µM |
| COC(=O)[C@@H](C)CNS(=O)(=O)N(c1cc(C(F)(F)F)cc(C(F)(F)F)c1)C1CCN(Cc2ccc(F)cc2)CC1 | 15.8 | 29.7 µM |
| C=C1C(=O)O[C@@H]2/C=C(\C)CC/C=C(/COC(C)=O)C[C@@H](OC(C)=O)[C@@H]12 | – | 34.6 µM |
| COC(=O)[C@H](C)NC(=O)NC(=O)NC(=O)CI | 16.7 | 36 µM |
| COc1cc2c(c(OC)c1OC)-c1ccc(OC)c(=O)cc1[C@@H](NC(=O)c1ccccc1)CC2 | < 0.003 | 30 µM and > 94.1 µM |
| NCCCCN(CCCN)/[N+]([O-])=N\O | – | > 100 µM |
| CCOc1ccccc1NC(=O)CC(C(=O)OC)C(=O)C(=O)OC (centres undefined) | – | > 100 µM |
| COc1cccc2c1C(=O)c1c(O)c3c(c(O)c1C2=O)C[C@@](O)(C(C)=O)C[C@@H]3OC1OC(C)C(O)C(N)C1Br (some centres undefined) | 0.0554 | 0.663 µM and 0.704 µM |
| CN1C/C=C\CCOc2cccc(c2)-c2ccnc(n2)Nc2cccc(c2)C1 | 0.0369 | – |
